{"source": "patent US5677281A", "about": "“Use of peptide derivatives for the preparation of medicaments inhibiting endopeptidases 24.15 and 24.16” (Commissariat a l'Energie Atomique, priority 1992, dated 1997)", "key": {"endopeptidase 24.16 [1]": {"biological_target": "endopeptidase 24.16 (Homo sapiens, UniProt Q9BYT8)", "sequence (Q9BYT8 38-704)": "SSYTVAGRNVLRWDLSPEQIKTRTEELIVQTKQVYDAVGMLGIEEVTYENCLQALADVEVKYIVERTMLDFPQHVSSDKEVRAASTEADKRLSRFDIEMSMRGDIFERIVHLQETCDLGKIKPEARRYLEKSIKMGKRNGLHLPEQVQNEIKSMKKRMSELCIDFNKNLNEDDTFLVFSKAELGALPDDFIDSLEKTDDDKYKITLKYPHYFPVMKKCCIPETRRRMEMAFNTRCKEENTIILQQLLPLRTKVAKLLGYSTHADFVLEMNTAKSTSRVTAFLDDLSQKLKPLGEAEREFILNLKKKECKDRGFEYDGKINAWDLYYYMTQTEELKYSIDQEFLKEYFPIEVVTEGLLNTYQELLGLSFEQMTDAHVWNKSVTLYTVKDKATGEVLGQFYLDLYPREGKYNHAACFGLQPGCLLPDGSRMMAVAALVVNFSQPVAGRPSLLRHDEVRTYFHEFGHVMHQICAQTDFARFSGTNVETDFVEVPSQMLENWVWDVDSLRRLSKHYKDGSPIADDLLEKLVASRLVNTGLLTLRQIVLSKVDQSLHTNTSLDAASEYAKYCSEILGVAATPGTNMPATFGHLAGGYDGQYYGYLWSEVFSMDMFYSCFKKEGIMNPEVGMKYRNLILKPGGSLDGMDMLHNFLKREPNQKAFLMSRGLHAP", "conditions": "Dauch et al, cited from earlier work"}, "endopeptidase 24.15 [2]": {"biological_target": "endopeptidase 24.15 (Homo sapiens, UniProt P52888)", "sequence (P52888 whole entry, species assumed)": "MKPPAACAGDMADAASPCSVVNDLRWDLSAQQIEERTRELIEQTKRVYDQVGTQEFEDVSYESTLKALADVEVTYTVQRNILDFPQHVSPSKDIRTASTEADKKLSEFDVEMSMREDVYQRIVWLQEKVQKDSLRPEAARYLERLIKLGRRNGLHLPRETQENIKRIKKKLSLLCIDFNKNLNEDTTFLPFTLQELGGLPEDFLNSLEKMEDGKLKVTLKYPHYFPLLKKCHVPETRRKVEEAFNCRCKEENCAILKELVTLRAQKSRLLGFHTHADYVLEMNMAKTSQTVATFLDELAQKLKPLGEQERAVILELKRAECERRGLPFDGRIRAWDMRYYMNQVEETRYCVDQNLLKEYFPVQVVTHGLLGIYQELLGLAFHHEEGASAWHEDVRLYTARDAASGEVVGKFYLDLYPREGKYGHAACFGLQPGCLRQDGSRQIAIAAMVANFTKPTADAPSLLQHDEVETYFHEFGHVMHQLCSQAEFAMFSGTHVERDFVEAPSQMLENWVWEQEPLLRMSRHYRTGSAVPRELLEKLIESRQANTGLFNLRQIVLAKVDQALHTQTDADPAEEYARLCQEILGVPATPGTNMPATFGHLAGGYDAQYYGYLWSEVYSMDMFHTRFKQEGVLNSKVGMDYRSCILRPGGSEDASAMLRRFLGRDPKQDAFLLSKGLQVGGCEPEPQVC", "conditions": "cited from earlier work"}, "endopeptidase 24.16 [3]": {"biological_target": "T1, endopeptidase 24.16 (Rattus norvegicus, UniProt P42676)", "T1 sequence (P42676 38-704)": "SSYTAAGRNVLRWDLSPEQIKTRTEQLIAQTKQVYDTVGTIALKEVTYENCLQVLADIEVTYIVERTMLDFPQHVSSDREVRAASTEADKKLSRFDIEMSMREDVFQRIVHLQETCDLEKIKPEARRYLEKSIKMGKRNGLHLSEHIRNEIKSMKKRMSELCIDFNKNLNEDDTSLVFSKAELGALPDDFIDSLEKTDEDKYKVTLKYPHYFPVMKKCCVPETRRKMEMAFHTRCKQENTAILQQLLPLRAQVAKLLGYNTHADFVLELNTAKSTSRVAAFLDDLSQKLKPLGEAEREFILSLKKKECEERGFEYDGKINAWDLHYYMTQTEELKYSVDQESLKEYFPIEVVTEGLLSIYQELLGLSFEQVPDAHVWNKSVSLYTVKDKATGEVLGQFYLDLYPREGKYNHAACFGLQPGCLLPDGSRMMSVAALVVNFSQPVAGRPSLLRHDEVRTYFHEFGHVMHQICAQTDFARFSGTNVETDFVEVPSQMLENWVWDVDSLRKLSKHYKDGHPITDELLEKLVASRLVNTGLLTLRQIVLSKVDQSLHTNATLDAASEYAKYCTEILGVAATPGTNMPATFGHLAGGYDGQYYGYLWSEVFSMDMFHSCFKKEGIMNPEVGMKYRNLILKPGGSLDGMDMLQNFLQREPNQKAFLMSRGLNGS", "assay": "Inhibition of endopeptidase 24.16, neurotensin as substrate, HPLC (Example 9)", "type": "biochemical", "description": "(§1) After incubation, it is interrupted by acidification and the solution analyzed by high performance liquid chromatography (HPLC) using an elution system constituted by a linear gradient of 42 min of 0.1% trifluoroacetic acid and 0.05% triethyl amine in acetonitrile, ranging between 9/1 and 3/1, as described by Checler et al, Biochimie 70, pp.75-82, 1988.\nThe results obtained are given in FIGS. 2 to 7, which show chromatograms obtained by measuring the optical density at 230 nm as a function of time (min)."}, "leucine aminopeptidase": {"test_system": "leucine aminopeptidase", "assay": "Effect on leucine aminopeptidase, substrate Leu-7AMC, HPLC (Example 13)", "type": "biochemical", "conditions": "1 μmole/l of inhibitor, 15 min, 37° C.", "description": "After incubating for 15 min, the reaction medium is analyzed by HPLC."}, "endopeptidase 24.11": {"test_system": "endopeptidase 24.11", "assay": "Effect on endopeptidase 24.11, hydrolysis of neurotensin (Example 15)", "type": "biochemical", "description": "The hydrolysis of 2 nM of neurotensin is followed by 9 μg of endopeptidase 24.11 under the conditions described in example 3."}, "endopeptidase 24.16 [4]": {"biological_target": "T1, endopeptidase 24.16", "assay": "Inhibition of endopeptidase 24.16, neurotensin, Tris-HCl 25 mM pH 7, 25° C. (Example 16)", "type": "biochemical", "conditions": "read-out: Endopeptidases 24.16 Ki", "description": "as §1\nAs in example 9, this example studies the inhibiting effect of the compounds of examples 1 to 7 on endopeptidase 24.16 using neurotensin as the substrate and operating in the same way, except that use is made of a Tris-HCl, 25 mM, pH 7 buffer and a temperature of 25° C."}, "endopeptidase 24.15 [5]": {"biological_target": "T2, endopeptidase 24.15 (Rattus norvegicus, UniProt P24155)", "T2 sequence (P24155 whole entry)": "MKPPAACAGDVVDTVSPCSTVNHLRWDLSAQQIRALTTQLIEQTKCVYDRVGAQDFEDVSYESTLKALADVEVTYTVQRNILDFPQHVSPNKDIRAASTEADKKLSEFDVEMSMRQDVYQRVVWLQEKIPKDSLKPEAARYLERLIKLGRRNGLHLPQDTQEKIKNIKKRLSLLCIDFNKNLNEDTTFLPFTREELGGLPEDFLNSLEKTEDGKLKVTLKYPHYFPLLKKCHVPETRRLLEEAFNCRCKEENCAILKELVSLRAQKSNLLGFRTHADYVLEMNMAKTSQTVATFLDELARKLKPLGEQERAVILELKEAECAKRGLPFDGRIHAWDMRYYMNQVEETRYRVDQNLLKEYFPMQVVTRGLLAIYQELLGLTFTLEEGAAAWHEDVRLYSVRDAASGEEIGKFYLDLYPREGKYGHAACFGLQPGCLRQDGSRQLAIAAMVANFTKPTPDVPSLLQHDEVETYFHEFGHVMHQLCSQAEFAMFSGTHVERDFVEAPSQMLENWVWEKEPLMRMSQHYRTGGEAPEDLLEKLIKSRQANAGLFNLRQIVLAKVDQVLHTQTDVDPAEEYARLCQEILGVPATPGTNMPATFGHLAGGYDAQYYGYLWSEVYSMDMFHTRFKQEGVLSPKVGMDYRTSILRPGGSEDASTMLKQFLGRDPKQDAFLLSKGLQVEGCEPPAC", "assay": "Inhibition of endopeptidase 24.15, substrate Bz-Gly-Ala-Ala-Phe-pAB, HPLC (Example 10)", "type": "biochemical", "conditions": "37° C.", "description": "Following incubation, acidification and HPLC analysis on an inverse phase take place using a linear gradient elution system of 63 min of 0.1% trifluoroacetic acid and 0.05% triethyl amine in acetonitrile between 9/1 (v/v) and 5.5/4.5 (v/v), as described by Checler et al in Biochimie 70, pp.75-82, 1988."}, "carboxypeptidase A": {"biological_target": "T3, carboxypeptidase A (Bos taurus, UniProt P00730)", "T3 sequence (P00730 111-419)": "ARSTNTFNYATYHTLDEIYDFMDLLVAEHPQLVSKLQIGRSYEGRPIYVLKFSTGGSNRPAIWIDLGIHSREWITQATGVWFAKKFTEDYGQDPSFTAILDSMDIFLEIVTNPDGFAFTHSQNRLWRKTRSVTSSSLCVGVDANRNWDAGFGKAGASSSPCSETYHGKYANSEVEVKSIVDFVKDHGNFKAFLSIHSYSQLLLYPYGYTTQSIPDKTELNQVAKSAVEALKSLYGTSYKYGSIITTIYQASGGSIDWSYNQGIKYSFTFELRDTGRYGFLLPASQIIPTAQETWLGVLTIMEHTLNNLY", "assay": "Effect on carboxypeptidase A, substrate Hippuryl-Phe, HPLC (Example 12)", "type": "biochemical", "conditions": "1 μmole/l of inhibitor, 15 min, 37° C.", "description": "After 15 min incubation, the solution is analyzed by HPLC."}, "endopeptidase 24.15 [6]": {"biological_target": "T2, endopeptidase 24.15", "assay": "Inhibition of endopeptidase 24.15, neurotensin, Tris-HCl 25 mM pH 7, 25° C. (Example 17)", "type": "biochemical", "conditions": "read-out: Endopeptidases 24.15 Ki", "description": "(§2) After incubating for 42 min, acidification and analysis takes place of the liquid phase by HPLC in reverse phase using linear gradients of the trifluoroacetic acid, triethyl amine and acetonitrile system, as in example 3.\nAs in example 11, this example studies the inhibiting effect of the compounds of examples 1 to 7 on endopeptidase 24.15 using neurotensin as the substrate and working under the same conditions, except that use is made of a Tris-HCl 25 mM, pH 7 buffer and a temperature of 25° C."}, "endopeptidase 24.15 [7]": {"biological_target": "T2, endopeptidase 24.15", "assay": "Inhibition of endopeptidase 24.15, neurotensin as substrate, HPLC (Example 11)", "type": "biochemical", "conditions": "37° C.", "description": "This example uses the same operating procedure as in example 10, but using neurotensin as the endopeptidase 24.15 substrate.\nas §2"}, "endopeptidase 24.16 [8]": {"biological_target": "T1, endopeptidase 24.16", "assay": "Inhibition of endopeptidase 24.16, fluorimetry with substrate Mcc-Pro-Leu-Gly-Pro-DLys-Dnp (Example 8)", "type": "biochemical", "conditions": "1 h, 37° C., pH 7.5, read-out: inhibition constant Ki", "description": "After incubating for 1 h, the solutions are analyzed by fluorimetry, as described by Dauch et al, Biochem. J., 280, pp.421-426, 1991a."}, "[9]": {"biological_target": "angiotensin conversion enzyme (Homo sapiens, UniProt P12821)", "sequence (P12821 30-1306)": "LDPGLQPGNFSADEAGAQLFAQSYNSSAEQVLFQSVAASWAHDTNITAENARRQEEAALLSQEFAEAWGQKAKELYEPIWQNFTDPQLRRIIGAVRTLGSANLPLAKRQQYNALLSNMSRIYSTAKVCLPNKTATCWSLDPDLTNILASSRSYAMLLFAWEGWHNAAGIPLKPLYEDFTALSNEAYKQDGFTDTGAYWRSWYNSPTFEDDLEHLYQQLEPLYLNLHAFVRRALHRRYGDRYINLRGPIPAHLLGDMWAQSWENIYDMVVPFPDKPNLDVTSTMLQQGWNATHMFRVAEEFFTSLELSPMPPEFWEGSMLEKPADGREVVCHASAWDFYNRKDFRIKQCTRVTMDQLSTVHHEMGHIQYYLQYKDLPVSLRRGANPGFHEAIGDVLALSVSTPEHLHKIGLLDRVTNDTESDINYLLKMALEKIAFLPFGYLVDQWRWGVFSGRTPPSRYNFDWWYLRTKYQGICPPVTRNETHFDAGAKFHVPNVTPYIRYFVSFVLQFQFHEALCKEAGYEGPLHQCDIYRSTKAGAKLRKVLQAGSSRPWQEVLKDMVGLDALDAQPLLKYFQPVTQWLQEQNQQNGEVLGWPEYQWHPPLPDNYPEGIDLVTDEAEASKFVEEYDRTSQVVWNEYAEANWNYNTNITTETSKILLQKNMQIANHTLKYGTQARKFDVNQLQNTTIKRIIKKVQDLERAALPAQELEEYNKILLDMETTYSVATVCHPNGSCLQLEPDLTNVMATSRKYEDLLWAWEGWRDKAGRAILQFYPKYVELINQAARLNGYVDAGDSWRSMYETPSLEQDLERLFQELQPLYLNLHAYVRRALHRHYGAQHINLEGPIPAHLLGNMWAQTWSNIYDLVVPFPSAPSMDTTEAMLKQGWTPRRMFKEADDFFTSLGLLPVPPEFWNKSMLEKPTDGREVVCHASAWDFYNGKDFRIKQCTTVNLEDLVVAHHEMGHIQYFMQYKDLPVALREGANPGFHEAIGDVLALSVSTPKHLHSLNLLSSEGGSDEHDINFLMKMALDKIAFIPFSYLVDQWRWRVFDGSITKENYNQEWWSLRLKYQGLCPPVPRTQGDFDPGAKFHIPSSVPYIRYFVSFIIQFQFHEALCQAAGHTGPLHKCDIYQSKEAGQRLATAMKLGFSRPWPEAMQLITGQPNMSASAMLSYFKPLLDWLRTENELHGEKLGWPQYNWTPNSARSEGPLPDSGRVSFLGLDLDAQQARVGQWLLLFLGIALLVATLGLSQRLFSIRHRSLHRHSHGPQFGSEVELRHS", "assay": "Effect on angiotensin conversion enzyme, substrate Hippuryl-His-Leu, HPLC (Example 14)", "type": "biochemical", "conditions": "1 μmole/l of inhibitor, 15 min, 37° C."}}, "note": "Entries after “also recorded” stand apart in the source; their conditions may differ. Where two headings read alike, the source gives them in different places. Residues, ends and D or L forms follow the SMILES beside them."}
{"molecule": "C[C@H](NC(=O)[C@H](C)NC(CCc1ccccc1)C(=O)O)C(=O)N[C@@H](Cc1ccc(O)cc1)C(=O)Nc1ccc(C(=O)O)cc1", "note": "(stereo partly drawn) [CPP-Ala-Ala-Tyr-pAB]", "values": [{"measurement": "Ki", "setting": "endopeptidase 24.16 [1]; Biochem. J. 280, 1991, read-out: inhibition constant, endopeptidase 24.16", "value": 1000, "unit": "nM"}, {"measurement": "Ki", "setting": "endopeptidase 24.15 [2]; Orlowski et al, Biochemistry 27, 1988, read-out: inhibition constant, endopeptidase 24.15", "value": 16, "unit": "nM"}]}
{"molecule": "CC[C@H](C)[C@H](NC(=O)[C@@H]1CCCN1)C(=O)O", "note": "[Pro-Ile] (H-Pro-Ile-OH)", "values": [{"measurement": "Ki", "setting": "endopeptidase 24.16 [1]; Eur. J. Biochem. 202, 1991b, read-out: Ki inhibition of endopeptidase 24.16", "value": 90000, "unit": "nM"}, {"measurement": "inhibiting action on endopeptidase 24.15", "setting": "endopeptidase 24.15 [2]; at a concentration as high as 5 mN", "value": "no inhibiting action"}]}
{"molecule": "phosphodiepryl O3", "values": [{"measurement": "effectiveness compared with the Ki of the known inhibitor Pro-Ile", "setting": "endopeptidase 24.16 [3]; Ki 0.9 nM versus Pro-Ile 90 μM", "value": "100,000 times"}, {"measurement": "Ki", "setting": "endopeptidase 24.16 [3]; substrate neurotensin, 37° C., pH 7.5", "value": 0.9, "unit": "nM"}, {"measurement": "leucine aminopeptidase inhibition", "setting": "leucine aminopeptidase", "value": "no inhibition; also recorded: no effect"}, {"measurement": "inhibition of endopeptidase 24.11", "setting": "endopeptidase 24.11", "value": "no inhibition; also recorded: no effect"}, {"measurement": "Ki", "setting": "endopeptidase 24.16 [4]", "value": 0.44, "unit": "nM"}, {"measurement": "IC50", "setting": "endopeptidase 24.15 [5]", "value": 5, "unit": "nM"}, {"measurement": "Ki", "setting": "endopeptidase 24.15 [5]", "value": 5, "unit": "nM"}, {"measurement": "carboxypeptidase A inhibition", "setting": "carboxypeptidase A", "value": "no carboxypeptidase A inhibition; also recorded: no effect"}, {"measurement": "Ki", "setting": "endopeptidase 24.15 [6]", "value": 1.6, "unit": "nM"}, {"measurement": "IC50", "setting": "endopeptidase 24.15 [7]", "value": 100, "unit": "nM"}, {"measurement": "Ki", "setting": "endopeptidase 24.15 [7]; read-out: inhibition constant Ki", "value": 7.5, "unit": "nM"}, {"measurement": "Ki", "setting": "endopeptidase 24.16 [8]", "value": 0.3, "unit": "nM"}, {"measurement": "inhibition of the angiotensin conversion enzyme", "setting": "[9]", "value": "no inhibition; also recorded: no effect"}]}
